# Assay results from PubChem BioAssay AID1963964 (Molecular Pharmacology Branch, DTP, NCI, 2024).
# Tested on: 997726-040-R-J2-PDC tumor spheroids, viability
# Test: Anticancer human tumor 997726-040-R-J2-PDC patient-derived squamous cell lung carcinoma cell line growth inhibition [PI3K]
# Details: spheroids with HUVEC and MSC; for IC50: curve of first compound; for viability, T/C: stronger effect = lower value
# Outline: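 High-throughput combination screen: PI3K inhibitors crossed with targeted small molecules on complex spheroids of tumor cells, HUVEC and MSCs at 37 degrees C, 5% CO2. Top concentration was at or near clinical Cmax (otherwise 10 microM), with half-log decrements.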
# [1] = second compound 0.0316 µM, first compound 0.0316 µM
# [2] = second compound 0.0316 µM, first compound 0.1 µM
# [3] = second compound 0.1 µM, first compound 0.0316 µM
# [4] = second compound 0.1 µM, first compound 0.1 µM
# [5] = second compound 0.316 µM, first compound 0.0316 µM
# [6] = second compound 0.316 µM, first compound 0.1 µM
# [7] = second compound 1 µM, first compound 0.0316 µM
# [8] = second compound 1 µM, first compound 0.1 µM
# [9] = second compound 3.16 µM, first compound 0.0316 µM
# [10] = second compound 3.16 µM, first compound 0.1 µM
# [11] = second compound 10 µM, first compound 0.0316 µM
# [12] = second compound 10 µM, first compound 0.1 µM
# 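Also: spheroids exposed to compounds for seven days before readout.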
smiles,measurement,setting,value
C[C@@H](NC(=O)c1ncnc(N)c1Cl)c1ncc(C(=O)Nc2cc(C(F)(F)F)c(Cl)cn2)s1 + CC(Nc1ncnc2nc[nH]c12)c1cc2cccc(Cl)c2c(=O)n1-c1ccccc1,IC50,second compound 0.0316 µM,> 10000 nM
same,IC50,second compound 0.1 µM,> 10000 nM
same,IC50,second compound 0.316 µM,> 10000 nM
same,IC50,second compound 1 µM,> 10000 nM
same,IC50,second compound 3.16 µM,> 10000 nM
same,IC50,second compound 10 µM,4740 nM
same,"viability, T/C",[1],123%
same,"viability, T/C",[2],112%
same,"viability, T/C","second compound 0.0316 µM, first compound 0.316 µM",113%
same,"viability, T/C","second compound 0.0316 µM, first compound 1 µM",120%
same,"viability, T/C","second compound 0.0316 µM, first compound 3.16 µM",97.2%
same,"viability, T/C","second compound 0.0316 µM, first compound 10 µM",84.1%
same,"viability, T/C",[3],108%
same,"viability, T/C",[4],129%
same,"viability, T/C","second compound 0.1 µM, first compound 0.316 µM",118%
same,"viability, T/C","second compound 0.1 µM, first compound 1 µM",118%
same,"viability, T/C","second compound 0.1 µM, first compound 3.16 µM",103%
same,"viability, T/C","second compound 0.1 µM, first compound 10 µM",68.7%
same,"viability, T/C",[5],114%
same,"viability, T/C",[6],114%
same,"viability, T/C","second compound 0.316 µM, first compound 0.316 µM",128%
same,"viability, T/C","second compound 0.316 µM, first compound 1 µM",119%
same,"viability, T/C","second compound 0.316 µM, first compound 3.16 µM",96.8%
same,"viability, T/C","second compound 0.316 µM, first compound 10 µM",70.1%
same,"viability, T/C",[7],114%
same,"viability, T/C",[8],102%
same,"viability, T/C","second compound 1 µM, first compound 0.316 µM",108%
same,"viability, T/C","second compound 1 µM, first compound 1 µM",113%
same,"viability, T/C","second compound 1 µM, first compound 3.16 µM",91.5%
same,"viability, T/C","second compound 1 µM, first compound 10 µM",72.8%
same,"viability, T/C",[9],97%
same,"viability, T/C",[10],90.9%
same,"viability, T/C","second compound 3.16 µM, first compound 0.316 µM",83.8%
same,"viability, T/C","second compound 3.16 µM, first compound 1 µM",79.2%
same,"viability, T/C","second compound 3.16 µM, first compound 3.16 µM",79.5%
same,"viability, T/C","second compound 3.16 µM, first compound 10 µM",61.5%
same,"viability, T/C",[11],61.4%
same,"viability, T/C",[12],62.4%
same,"viability, T/C","second compound 10 µM, first compound 0.316 µM",60.2%
same,"viability, T/C","second compound 10 µM, first compound 1 µM",59.5%
same,"viability, T/C","second compound 10 µM, first compound 3.16 µM",52.3%
same,"viability, T/C","second compound 10 µM, first compound 10 µM",43.9%
Cn1ncnc1[C@H]1c2n[nH]c(=O)c3cc(F)cc(c23)N[C@@H]1c1ccc(F)cc1 + CC(Nc1ncnc2nc[nH]c12)c1cc2cccc(Cl)c2c(=O)n1-c1ccccc1,IC50,second compound 0.0316 µM,> 100 nM
same,IC50,second compound 0.1 µM,> 100 nM
same,IC50,second compound 0.316 µM,> 100 nM
same,IC50,second compound 1 µM,> 100 nM
same,IC50,second compound 3.16 µM,> 100 nM
same,IC50,second compound 10 µM,80.4 nM
same,"viability, T/C","second compound 0.0316 µM, first compound 0.000316 µM",101%
same,"viability, T/C","second compound 0.0316 µM, first compound 0.001 µM",99.9%
same,"viability, T/C","second compound 0.0316 µM, first compound 0.00316 µM",102%
same,"viability, T/C","second compound 0.0316 µM, first compound 0.01 µM",112%
same,"viability, T/C",[1],99.7%
same,"viability, T/C",[2],96.8%
same,"viability, T/C","second compound 0.1 µM, first compound 0.000316 µM",96.5%
same,"viability, T/C","second compound 0.1 µM, first compound 0.001 µM",99.7%
same,"viability, T/C","second compound 0.1 µM, first compound 0.00316 µM",94.4%
same,"viability, T/C","second compound 0.1 µM, first compound 0.01 µM",102%
same,"viability, T/C",[3],98.4%
same,"viability, T/C",[4],97.1%
same,"viability, T/C","second compound 0.316 µM, first compound 0.000316 µM",93.5%
same,"viability, T/C","second compound 0.316 µM, first compound 0.001 µM",99.4%
same,"viability, T/C","second compound 0.316 µM, first compound 0.00316 µM",98%
same,"viability, T/C","second compound 0.316 µM, first compound 0.01 µM",101%
same,"viability, T/C",[5],97.6%
same,"viability, T/C",[6],99.3%
same,"viability, T/C","second compound 1 µM, first compound 0.000316 µM",100%
same,"viability, T/C","second compound 1 µM, first compound 0.001 µM",95.3%
same,"viability, T/C","second compound 1 µM, first compound 0.00316 µM",90.4%
same,"viability, T/C","second compound 1 µM, first compound 0.01 µM",86.2%
same,"viability, T/C",[7],86.2%
same,"viability, T/C",[8],89.1%
same,"viability, T/C","second compound 3.16 µM, first compound 0.000316 µM",70.3%
same,"viability, T/C","second compound 3.16 µM, first compound 0.001 µM",77.9%
same,"viability, T/C","second compound 3.16 µM, first compound 0.00316 µM",69.7%
same,"viability, T/C","second compound 3.16 µM, first compound 0.01 µM",65.5%
same,"viability, T/C",[9],89.9%
same,"viability, T/C",[10],67.2%
same,"viability, T/C","second compound 10 µM, first compound 0.000316 µM",54.8%
same,"viability, T/C","second compound 10 µM, first compound 0.001 µM",61.6%
same,"viability, T/C","second compound 10 µM, first compound 0.00316 µM",55.3%
same,"viability, T/C","second compound 10 µM, first compound 0.01 µM",54%
same,"viability, T/C",[11],55%
same,"viability, T/C",[12],48.9%
